Assay results from patent US8415152B2, “Therapeutical composition containing dentritic cells and use thereof” (Helmholtz-Zentrum für Infektionsforschung GmbH, priority 2003, dated 2013).

B1: DerP1: affinity purified major allergen of the house-dust mite Dermatophagoides pteronyssinus (protein, UniProt P08176 99-320, looked up)
Peptidase 1: TNACSINGNAPAEIDLRQMRTVTPIRMQGGCGSCWAFSGVAATESAYLAYRNQSLDLAEQELVDCASQHGCHGDTIPRGIEYIQHNGVVQESYYRYVAREQSCRRPNAQRFGISNYCQIYPPNVNKIREALAQTHSAIAVIIGIKDLDAFRHYDGRTIIQRDNGYQPNYHAVNIVGYSNAQGVDYWIVRNSWDTNWGDNGYGYFAANIDLMMIEEYPYVVIL

Experiments:
[1] = tested on: Balb/c mice; assay: Differential cell count of BAL and blood, OVA-sensitized mice; format: in vivo, mouse; conditions: i.t. treatment day 27; 24 h after last allergen challenge
Description: (§1) Animals were sensitized and challenged as previously described (Glaab, T., A. Daser, A. Braun, U. Neuhaus-Steinmetz, H. Fabel, Y. Alarie, and H. Renz. 2001. Am. J. Physiol Lung Cell Mol. Physiol 280:L565-L573). Briefly, 10 μg ovalbumin (OVA, grade VI, Sigma, Müchen, Germany) was adsorbed to 1 mg Imject Alum (Pierce, Rockford, USA) in a total volume of 200 μl 0.9% NaCl solution and intraperitonealy injected three times on days 0, 14 and 21. Negative controls were injected with the solution lacking ovalbumin. All groups were subjected to inhalative allergen challenge on days 28 and 29. OVA-aerosols (grade V, Sigma) with a mean mass diameter of 1.49 μm were generated from a solution of 1 mg/ml OVA in 0.9% NaCl using a modified Pad Master system (Pari Werke, Sternberg, Germany) for 20 min. A lung deposition of approximately 8 μg OVA per mice in each session was calculated by a respiratory minute volume of 35 ml/min an a deposition factor of 0.15 as brought forward by Raabe et al. (Raabe, O. G., J. E. Bennick, M. E. Light, C. H. Hobbs, R. L. Thomas, and M. I. Tillery. 1973. Toxicol. Appl. Pharmacol. 26:264-273). 3 gives the test groups.
(§2) The trachea was canulated under direct vision, and a total volume of 50 μl containing the substances was instillated using a syringe.
(§3) Mice were killed with an i.p. injected overdose of pentobarbital-Na (Menial, Halbergmoos, Germany) after the lung function. In a satellite group, mice were left untouched after the last allergen challenge and kept for another 7 days. Afterwards, they were dissected in the same way as the main groups as follows. Blood was obtained via punction of the vena cava. Red blood cells were lysed by incubation with 0.9% NH4Cl (Sigma) in H2O for 10 min, white blood cells were automatically counted using an AcT8 counter (Beckman Coulter, Krefeld, Germany) and cytospins were prepared for differential cell count. The trachea was canulated and broncho-alveolar lavage (BAL) was performed with 0.8 ml ice cold saline two times. BAL cells were separated by centrifugation, counted and cytospins were prepared as described above. The BAL fluid (BALF) was aliquoted, shock frozen in liquid nitrogen and stored at −80° C. until the determination of cytokines. After BAL, the lungs were filled with Tissue-Tek O.C.T. (Sakura Finetek, Zoeterwoude, Netherlands) diluted 1:2 in PBS and the trachea was ligated. Next, the right lungs were excised, subsequently shock frozen in liquid nitrogen and stored at −80° C. for histology.
Cytospins were stained applying the Pappenheim method according to standard protocols. […] 300 cells of each sample were determined, and absolute counts of macrophages, lymphocytes, eosinophilic and neutrophilic granulocytes were calculated.

[2] = tested on: monocyte derived DC; assay: Flow cytometric analysis of DC surface molecules; format: cell-based, human; conditions: for Surface expression of CD80, CD86, CD40, HLA-DR, CD83 on DC: immature DC of allergics, 48 h incubation
Description: (§4) Monocyte derived DC were generated as previously described (Weigt et al. Immunobiol. 207, 223-233 (2003). Briefly, blood was centrifuged to remove platelets, diluted and layered over Ficoll-Paque (Amersham Pharmacia, Uppsala, Sweden). After density gradient centrifugation, PBMC were collected, and monocytes were enriched using the MACS system and anti-CD14 beads (Miltenyi Biotec, Bergisch Gladbach, Germany). The CD14 positive fraction (monocytes) was cultured in the serum-free medium X-VIVO 15 supplemented with 100 U/ml penicillin and […] streptomycin (all BioWhittaker, Verviers, Belgium). The CD14 negative fraction containing the lymphocytes was cryopreserved in 90% FCS (GIBCO, Eggenstein-Leopoldhafen, Germany) and 10% DMSO (SIGMA, Taufkirchen, Germany). On day 1 and day 5 after isolation, 800 U/m of recombinant GM-CSF and 500 U/ml of recombinant IL-4 (Strathmann Biotec, Hamburg, Germany) were added to the monocyte culture to induce DC.
(§5) On day 5 of the culture, DC were pulsed with affinity purified house dust mite allergen adjusted to a concentration of 100 ng/ml of DerP1 or with PBS as control. […] The respective optimal concentrations were experimentally determined using the highest expression of stimulatory cell surface molecules as read-out system. The substances were incubated on the cells for 48 hours.
For immunophenotyping, an aliquot of DC was harvested after 7 days of culture and washed in PBS supplemented with 0.5% FCS and 10 mM NaN3 (SIGMA, Taufkirchen, Germany). After 30-minute-incubation at 4° C. with one of the following combination of labeled murine mAbs (isotype control FITC/isotype control PE, anti-CD83 FITC, anti-CD86 FITC/anti-CD40 PE, anti-CD 80 FITC/anti-HLA-DR PE, anti-CD1a FITC/anti-CD14 PE (all BD Biosciences, Heidelberg, Germany)) cells were washed and analysed on a EPICS XL-MCL (Beckmann Coulter, Krefeld, Germany) flow cytometer. Data were processed with the Expo 32 cytometer software (Beckmann Coulter). The expression of the cell surface molecules was shown in 1 parameter Histograms (FIG. 2) or evaluated using the median of fluorescence intensity (MFI) after subtraction of the values of the isotype control (Tab. 1).

[3] = tested on: autologous lymphocytes; assay: Cytokines in coculture of pretreated DC with autologous lymphocytes (ELISA); format: cell-based, human; conditions: for IFN-g in coculture supernatant / IL-4 in coculture supernatant: DC:lymphocytes 1:3; for IFN-g concentration in coculture supernatant / IL-4 concentration in coculture supernatant: DerP1 pulsed DC, day 3 of coculture
Description: as §5
(§6) Cytokine concentrations were determined in DC culture supernatant collected on day 7 (TNF-α, IL-10, IL-12) and in the supernatant of the coculture of DC and autologous lymphocytes collected on day 10 (IFN-γ, IL-4). Duo-Set ELISA kits for the detection of IL-12p70, IL-10, TNF, IFN-γ, IL-4 and IL-5 were purchased (R&D Systems, Wiesbaden, Germany) and performed according to the manufacturers instructions.
(§7) A portion of DC was used for coculture experiments with autologous lymphocytes from day 7 to day 13. To remove free stimulants, DC were harvested and washed twice. The cells were titrated in fresh medium in fresh round-bottom microtiterplates. 1×10^5 vital cryopreserved autologous lymphocytes were added at ratios of DC to lymphocytes from 1:3 to 1:2187 in a final volume of 200 μl in serum-free XVIVO-15. No further stimulants were given.

[4] = tested on: autologous lymphocytes; conditions: DC treated in vitro; Weigt et al. 2003; cited from earlier work
[5] = tested on: autologous lymphocytes; assay: Proliferation assay (3H-thymidine) in coculture of DC and autologous lymphocytes; format: cell-based, human; conditions: DC of allergics, allergen pulsed, 3H-thymidine day 12 for 18 hours
Description: as §7
The coculture was pulsed with 5 μCi/ml ^3H-thymidine (Amersham Buchler, Braunschweig, Germany) on day 12. After 18 hours, the cells were harvested on filtermats (Canberra-Packard, Dreieich, Germany). After drying, 20 μl of liquid scintillator (Can berra-Packard) were added and the plates were sealed. Counts per minute were determined on a Topcount Microplate Scintillation Counter (Can berra-Packard).

[6] = tested on: Balb/c mice; assay: Lung function measurement: airway hyperreactivity to methacholine, head-out body plethysmography; format: in vivo, mouse; conditions: OVA-sensitized mice, 72 h after i.t. treatment, 24 h after last allergen challenge; mean±SEM
Description: as §1, with “OVA-aerosols (grade V, Sigma) with a mean mass diameter of 1.49 μm were generated from a solution of 1 mg/ml OVA in 0.9% NaCl using a modified Pad Master system (Pari Werke, Sternberg, Germany) for 20 min.” left out, “3 gives the test groups.” left out
24 hours after the last allergen challenge, airway hyperreactivity to methacholine (Mch) was determined in non-anaesthesized spontaneously breathing animals using head-out body plethysmography, as described before (Glaab, T., A. Daser, A. Braun, U. Neuhaus-Steinmetz, H. Fabel, Y. Alarie, and H. Renz. 2001. Am. J. Physiol Lung Cell Mol. Physiol 280:L565-L573). […] Respiratory signals were analyzed using the Hem 3.4 system (Notocord systems S. A., Crossy-sur-Seine, F).

[7] = tested on: Balb/c mice; assay: Cytokines in BALF of OVA-sensitized and challenged mice (ELISA); format: in vivo, mouse; conditions: i.t. treatment day 27 (20 ng MALP-2, 10^4 U IFN-γ); 24 h after last allergen challenge
Description: Female Balb/c mice (Charles River, Sulzfeld, Germany) were used at the age of 6-8 weeks In all experiments. They were fed with ovalbumin-free laboratory food and tap water ad libitum and held in a regular 12 h dark/light cycle at a temperature of 22° C. Before experimental start, mice were acclimated for a period of 7 days.
as §1, §2, §3
Duo-Set ELISA kits for the detection of IL-4, IL-5, IL-13 and IL-12p70 in the BAL supernatant were used (R&D Systems, Wiesbaden, Germany) according to the manufacturer's instructions.

[8] = tested on: monocyte derived DC; assay: Cytokines in DC culture supernatant (ELISA); format: cell-based, human; conditions: day 7 of culture; for IL-10 production in DC culture supernatant / IL-12p70 production in DC culture supernatant: compared to untreated DC
Description: as §4, §5, §6

[9] = DC of allergics, 48 h treatment, DerP1 100 ng/ml, MALP-2 100 pg/ml, IFN-g 5000 U/ml, mean±SEM of 6 experiments
[10] = allergic donors, pretreated DC:lymphocytes 1:3, mean±SEM of 6 experiments

| Molecule | Eosinophils in BAL [1] | Number of BAL lymphocytes [1] | Surface expression of CD80, CD86, CD40, HLA-DR, CD83 on DC [2] | IFN-g in coculture supernatant ([3]; allergic donors) | IL-4 in coculture supernatant ([3]; allergic donors) | Lymphocyte proliferation [5] | ED50: concentration of Mch needed to decrease the EF50 to 50% of baseline [6] [mg/ml Mch] | IL-4 in BALF [7] | IL-5 and IL-13 in BALF [7] | IL-12p70 in BALF [7] | TNF production in DC culture supernatant [8] | IL-10 production in DC culture supernatant [8] | IL-12p70 production in DC culture supernatant [8] | other results |
| --- | --- | --- | --- | --- | --- | --- | --- | --- | --- | --- | --- | --- | --- | --- |
| macrophage activating lipopeptide-2 [MALP-2, reference compound] | raised the eosinophil counts even further | increased | significantly upregulated CD 40, CD 80, CD 83 and CD86 | lowered IFN-g less compared to allergen pulsed DC | reduced IL-4 to control levels | exceeded by MALP-2 | 20.13±1.36 | reduce all Th2-markers to the level of the unsensitized negative control | reduce all Th2-markers to the level of the unsensitized negative control | did not amplify IL-12p70 | comparable moderate release | induced IL-10 | no effect on IL-12 | Polarization of lymphocytes into T-helper (Th-1) cells [4]: no significant polarization; Proliferation of autologous lymphocytes [4]: marked proliferation |
| IFN-γ: interferon gamma, IFNγ receptor agonist (Strathmann Biotec) | raised the eosinophil counts even further | increased | upregulated only HLA-DR | heightened lymphopcyte IFN-g production | little effect on IL-4 | increased proliferation | 17.67±3.05 | did not affect IL-4 | reduced the levels of IL-5 and IL-13 | failed to induce IL-12p70 | comparable moderate release | did not influence | did not influence |  |
| B1 |  |  | no effect on the expression of the surface molecules | reduction of IFN-g | increase in IL-4 | only a very weak effect on lymphocyte proliferation |  |  |  |  | low levels | did not influence | did not influence | CD1a median fluorescence intensity [2, 9]: 265.2 +/− 106.8; CD 14 median fluorescence intensity [2, 9]: 17.6 +/− 9.8; CD 40 median fluorescence intensity [2, 9]: 733 +/− 160.5; CD 80 median fluorescence intensity [2, 9]: 47.2 +/− 18.9; CD 83 median fluorescence intensity [2, 9]: 47.3 +/− 9^; CD 86 median fluorescence intensity [2, 9]: 159.8 +/− 29.3; HLA-DR median fluorescence intensity [2, 9]: 426.9 +/− 131.9; IFN-γ production in coculture [3, 10]: 3.6 +/− 2.1; IL-4 production in coculture [3, 10]: 13.6 +/− 7.3; IFN-g concentration in coculture supernatant ([3]; allergics, ±SEM): 3.6 pg/mL; IL-4 concentration in coculture supernatant ([3]; allergics, ±SEM): 13.6 pg/m; IL-4 concentration in coculture supernatant ([3]; healthy donors): below the detection limit; IFN-g concentration in coculture supernatant ([3]; non-allergics (healthy donors), ±SEM): 8.7 pg/m |
